In ChEMBL document CHEMBL1121541, “Novel analogues of enkephalin: indentification of functional groups required for biological activity” (J Med Chem, 1980):
pIC50: −log10 of the molar value.

Organism: Cavia porcellus
Assay: Ability to Inhibit amplitude of the electrically stimulated guinea pig ileum by 50%; call rule not given here
Format: functional, organism-based

Q: With `N[C@@H](Cc1ccc(O)cc1)C(=O)NCC(=O)NCC(=O)NC1CCc2ccccc21` (some centres undefined) as the molecule, how does the pIC50 read?
A: 5.59

Organism: Cavia porcellus
Assay: Ability to Inhibit amplitude of the electrically stimulated guinea pig ileum by 50%; Inactive at 1.7E-6 concentration
Format: functional, organism-based

Q: For `CC(C)C[C@@H](NC(=O)[C@@H](Cc1ccccc1)NC(=O)CNC(=O)C(C)NC(=O)[C@](C)(N)Cc1ccc(O)cc1)C(=O)O` (stereo in doubt), which IC50 is on record?
A: Not Active

Organism: Cavia porcellus
Assay: Ability to Inhibit amplitude of the electrically stimulated guinea pig ileum by 50%; Inactive at 2.19E-4 concentration
Format: functional, organism-based

Q: Which IC50 does the source give for `NCCc1ccc(O)cc1` [TYRAMINE] here?
A: Not Active

Organism: Cavia porcellus
Assay: Ability to Inhibit amplitude of the electrically stimulated guinea pig ileum by 50%; Inactive at 2.71E-6
Format: functional, organism-based

Q: Which IC50 does the source give for `CC(NC(=O)[C@@H](N)Cc1ccc(O)cc1)C(=O)NCC(=O)NC1Cc2ccccc2C1` (stereo in doubt) here?
A: Not Active

Organism: Cavia porcellus
Assay: Ability to Inhibit amplitude of the electrically stimulated guinea pig ileum by 50%; Inactive at 3.2E-6 concentration
Format: functional, organism-based

Q: Which IC50 does the source give for `CC(C)[C@H](NC(=O)CNC(=O)[C@@H](N)Cc1ccc(O)cc1)C(=O)NC1CCc2ccccc21` (some centres undefined) here?
A: Not Active

Tested on: not listed separately
Assay: Ratio of IC50 of [D-Ala2, D-Leu5]-enkephalin to that of the compound, in the guinea pig ileum assay
Format: functional

Q: For `C[C@@H](NC(=O)[C@@H](N)Cc1ccc(O)cc1)C(=O)NCC(=O)NC1CCc2ccccc21` (some centres undefined), which Ratio is on record?
A: 0.47

Organism: Cavia porcellus
Assay: Inhibition of contraction of electrically stimulated guinea pig ileum
Format: functional, organism-based

Q: With `C[C@@H](NC(=O)[C@@H](N)Cc1ccc(O)cc1)C(=O)NCC(=O)OCc1ccccc1` as the molecule, how does the pIC50 read?
A: 6.66

Q: With `CN1CC[C@]23c4c5ccc(O)c4O[C@H]2[C@@H](O)C=C[C@H]3[C@H]1C5` as the molecule, how does the pIC50 read?
A: 8.80

Q: With `CSCC[C@H](NC(=O)[C@H](Cc1ccccc1)NC(=O)CNC(=O)[C@H](NC(=O)[C@@H](N)Cc1ccc(O)cc1)C(C)C)C(N)=O` as the molecule, how does the pIC50 read?
A: 7.80

Q: With `CC(C)[C@H](NC(=O)[C@@H](N)Cc1ccc(O)cc1)C(=O)NCC(=O)NC1CCc2ccccc21` (some centres undefined) as the molecule, how does the pIC50 read?
A: 5.85

Q: With `CC(C)[C@H](NC(=O)CNC(=O)[C@@H](N)Cc1ccc(O)cc1)C(=O)NC1CCc2ccccc21` (some centres undefined) as the molecule, how does the pIC50 read?
A: 5.04

Q: With `CCOC(=O)CC[C@H](N)C(=O)N[C@H](C)C(=O)NCC(=O)N[C@@H](Cc1ccccc1)C(=O)N[C@H](CC(C)C)C(=O)O` as the molecule, how does the pIC50 read?
A: 5.13

Q: With `C[C@@H](NC(=O)[C@@H](N)Cc1ccc(O)cc1)C(=O)NCC(=O)NC1CCc2ccccc21` (some centres undefined) as the molecule, how does the pIC50 read?
A: 7.40

Q: With `CC(C)[C@H](NC(=O)[C@](C)(Cc1ccccc1)NC(=O)CNC(=O)[C@@H](C)NC(=O)[C@@H](N)Cc1ccc(O)cc1)C(=O)O` as the molecule, how does the pIC50 read?
A: 6.90

Q: With `CC(NC(=O)[C@@H](N)Cc1ccc(O)cc1)C(=O)NCC(=O)NCC1CC1` (stereo in doubt) as the molecule, how does the pIC50 read?
A: 6.32

Q: With `CC(NC(=O)[C@@H](N)Cc1ccc(O)cc1)C(=O)NCC(=O)N[C@@](C)(Cc1ccccc1)C(=O)O` (stereo in doubt) as the molecule, how does the pIC50 read?
A: 7.12

Q: With `CC(NC(=O)[C@@H](N)Cc1ccc(O)cc1)C(=O)NCC(=O)NC1Cc2ccccc2C1` (stereo in doubt) as the molecule, how does the pIC50 read?
A: 5.05

Q: With `CC(C)CC(NC(=O)[C@H](CC1CCCCC1)NC(=O)CNC(=O)C(C)NC(=O)[C@@H](N)Cc1ccc(O)cc1)C(=O)O` (stereo in doubt) as the molecule, how does the pIC50 read?
A: 8.05

Q: With `CC(NC(=O)[C@@H](N)Cc1ccc(O)cc1)C(=O)NCC(=O)NCc1ccccc1` (stereo in doubt) as the molecule, how does the pIC50 read?
A: 6.85

Q: With `CC(C)C[C@@H](NC(=O)[C@](C)(Cc1ccccc1)NC(=O)CNC(=O)C(C)NC(=O)[C@@H](N)Cc1ccc(O)cc1)C(=O)O` (stereo in doubt) as the molecule, how does the pIC50 read?
A: 7.38

Q: With `CC(NC(=O)[C@@H](N)Cc1ccc(O)cc1)C(=O)NCC(=O)O` (stereo in doubt) as the molecule, how does the pIC50 read?
A: 4.61

Q: With `CC(NC(=O)[C@@H](N)Cc1ccc(O)cc1)C(=O)NCC(=O)NCC1CCC1` (stereo in doubt) as the molecule, how does the pIC50 read?
A: 6.49

Q: With `CC(NC(=O)[C@@H](N)Cc1ccc(O)cc1)C(=O)NCC(=O)NCCc1ccccc1` (stereo in doubt) as the molecule, how does the pIC50 read?
A: 7.01

Q: With `CC(C)C[C@@H](NC(=O)[C@H](Cc1ccccc1)NC(=O)CNC(=O)[C@@H](C)NC(=O)[C@@H](N)Cc1ccc(O)cc1)C(=O)O` [DADLE] as the molecule, how does the pIC50 read?
A: 7.77
